Data from US20040043940A1, “Use of ectoin or ectoin derivatives for protecting stress proteins in the skin” (priority 2000, published 2004).

System: HSP 72/73
Assay: Heat-shock induction of HSP 72/73 stress proteins in primary human keratinocytes (immunofluorescence)
Assay type: cell-based
Description: This was ascertained by spreading primary human keratinocytes on microscopic slides and cultivating them over a period of 3 days at 37° C. in KGM 2 medium (Cell Systems). The human keratinocytes were incubated to a confluence of approximately 60% and part of the culture was then treated with 1% ectoin based on the supernatant of the culture medium. The untreated portion of the culture served as control. Following treatment, the human keratinocytes were incubated for a further 16 hours at 37° C. The cultures were then subjected to heat shock by raising the temperature quickly from 37° C. to 44° C. The experiments were carried out by the method proposed by Holland et al in J. Invest Dermatol. (1993), 101: 196-199. Following this heat-shock treatment, incubation was carried out at 37° C. for a further 2 hours. The cells were then fixed. Fixing was carried out in 3 stages:
fixing solution A (1% CH3COOH/40% ethanol in deionized water v/v, 4° C.), 5 min,
fixing solution B (96% ethanol in deionized water v/v, 4° C.), 5 min,
fixing solution A, 5 min.
The stress proteins produced were stained by immunofluorescence, which process involved the following steps:
blockage of non-specific bonding sites with a blocking agent (10% BSA in phosphate buffer): 45 min, 37° C.,
incubation with the primary antibody anti HSP 72/73 (1:200 dilution in phosphate buffer): 45 min, 37° C.,
incubation with the FITC-conjugated secondary antibody goat anti mouse (1:200 dilution in phosphate buffer): 45 min, 37° C.,
covering of the specimens with fluorescent covering medium and slide cover glasses.
The stess proteins were determined quantitatively as HSP 72/73 under a microscope (BX40, filter: WB, burner: U-RFL-T, Olympus).

## CC1=N[C@H](C(=O)O)CCN1 [ectoin, (S)-1,4,5,6-tetrahydro-2-methyl-4-pyrimidinecarboxylic acid]
In vitro, ectoin-treated versus untreated skin cells
  protection of human skin cells against stress factors: significantly better
Primary human keratinocytes, 1% ectoin pretreatment 16 hours, heat shock 37° C. to 44° C., compared with untreated cultures
  induction of HSP 72/73 stress proteins: significantly faster
Primary human keratinocytes, 1% ectoin pretreatment, heat shock 44° C., untreated cells 60 minutes
  period until HSP 72/73 concentration maximum: 30 min
